Where two headings read alike, the source gives them in different places.
Experiments:
[1] = TLC Rf as a measure of relative lipophilicity; assay type: physicochemical; settings: silica gel TLC Al foils
[2] = Solubility in solvents (qualitative); assay type: physicochemical
[3] = Reactivity with L-glutathione (GSH), UV photometry at 260 nm; assay type: in vitro ADME; settings: for Half-time, t1/2 of reaction with GSH: 2 mM GSH, 10 mmol/L NaCl, 10 mmol/L Tris x HCl pH 7.4, 37 °C, UV 260 nm
Text: Deactivation of platinum anticancer drugs occurs in the organism at both systemic and intracellular levels. After intravenous administration, these drugs undergo a series of metabolic processes, and the concentration of their active forms can be reduced by various mechanisms. At the systemic level, the first step in deactivation is plasma protein binding: Platinum drugs rapidly bind to plasma proteins (over 90%), especially albumin [32]. […] At the cellular level, platinum drugs are neutralized by binding to intracellular proteins and peptides such as glutathione and metallothionein [33]. Binding to peptide and protein thiol and thioether moieties, which are the primary binding sites for such reactions, prevents the drug from reaching DNA and may be responsible for its nephrotoxicity. As in previous studies, we assessed the susceptibility of the tested compounds to this type of inactivation in the cancer tissues by measuring the half-life of the compound in an aqueous solution containing a physiological concentration of the reduced form of glutathione (GSH) using UV photometry at a wavelength of 260 nm similarly as in Hagrman et al.. Using the same methodology allowed us to directly compare the GHS reactivity of nitroisothiazole compounds with their pyrazole and isoxazole analogues. As a control, the UV spectra of complexes C1 and C2 in dioxane were recorded to check whether there was excessive absorption at a wavelength of 260 nm, which could interfere with the measurement of the reaction of the complexes with glutathione (visualization of the UV spectra can be found in the Supplementary Materials, Figures S46 and S47).
The experiment was conducted in a similar manner to that described in previous publications. First, 30 μL of 60 mM solution of the appropriate complex (cis C1, trans C2, trans C3 and trans C4) in purified and anhydrous distilled dioxane was mixed with 3 mL of a 2 mM solution of reduced L-glutathione (GSH) in an argon-saturated medium containing 10 mmol/L NaCl and 10 mmol/L Tris x HCl buffer, pH 7.4, to achieve a final concentration of 6 µM of the tested complexes. The measurement was carried out at 37 °C. The progress of the reaction was monitored by UV absorption spectrometry at a wavelength of 260 nm. Dioxane was used to dissolve the tested Pt complexes due to the lack of UV absorption of this solvent at the used wavelength. The GSH solution was saturated with argon to remove oxygen and thus prevent oxidation of GSH with the formation of S-S bonds, which would interfere with the measurement results.

[4] = tested on: A549 (lung adenocarcinoma); test: SRB (sulforhodamine B) viability assay, A549; assay type: cell-based, human; settings: for IC50 / IC50 ± SD, A549 (Lung), Hypoxia: SRB assay
Description: The cytotoxicity of the complexes C1–C5 was estimated by examining cell viability using the sulforhodamine B assay. […] However, due to the very poor solubility of the most polar complex C5 in acetone, its initial solution had to be prepared in polar N,N-dimethylacetamide (DMA) (see Section 3.7). Cisplatin was used as the reference drug. The results are presented as IC50 (50% inhibitory concentration), i.e., concentrations that reduce cell survival by 50%. The test was conducted on three cancer cell lines and one normal healthy cell line, namely, breast adenocarcinoma (MCF-7), ovarian adenocarcinoma (ES-2), lung adenocarcinoma (A549), and murine embryonic fibroblast (BALB/3T3).
Three solid tumor cell lines were used in this study: MCF-7 (breast adenocarcinoma), ES-2 (ovarian adenocarcinoma), and A549 (lung adenocarcinoma). The BALB/3T3 (mouse embryonic fibroblast) cell line was used as a comparative nonpathological tissue. All cell lines were purchased from the American Type Culture Collection (ATCC, Rockville, MD, USA). The preparation of cell cultures for cytotoxicity experiments is described in detail in the following article.
The initial solutions for subsequent dilutions in biological medium were prepared in a similar manner as described previously. […] The complex C5 was dissolved in the dimethylacetamide (DMA). All the initial solutions were prepared ex tempore and then were added to the culture medium 1:9 (v/v) to obtain a stock solution of 1 mg/mL.
The test was prepared and performed in the same manner as detailed in the following cited works.

[5] = normoxia, read-out: IC50 ± SD, A549 (Lung), Normoxia

Compound	Rf, Eluent: Chlorofom:Acetone Ratio 9:7 Vol. [1]	solubility in acetone [2]	Half-time, t1/2 of reaction with GSH [3]	reaction with GSH, times faster than oxaliplatin ([3]; from half-times of Table 5)	IC50 ([4]; hypoxia, read-out: IC50 ± SD, A549 (Lung), Hypoxia) [µM]	IC50 [4, 5] [µM]	selectivity index (SI), healthy cells vs A549 ([4]; ratio of cytotoxicity towards healthy BALB/3T3 cells to cytotoxicity towards A549)	solubility in chloroform [2]	Half-time, t1/2 of reaction with GSH ([3]; listed as trans-complex C3) [min]	reaction with GSH, times faster than transplatin ([3]; from half-times of Table 5) [times]	IC50 ± SD, A549 (Lung), Hypoxia ([4]; hypoxia)	Half-time, t1/2 of reaction with GSH ([3]; listed as cis-complex C1) [min]	reaction with GSH, times faster than cisplatin ([3]; from half-times of Table 5)
Cc1nscc1[N+](=O)[O-].Cc1nscc1[N+](=O)[O-].[Cl][Pt][Cl] [C2, trans-Dichlorobis(3-methyl-4-nitroisothiazole)platinum(II)]	0.756	weakly soluble	~29 min	about 1.5 times	6.52 ± 2.28	6.34 ± 1.47	0.2	–	–	–	–	–	–
COC(=O)c1snc(C)c1[N+](=O)[O-].Cc1nscc1[N+](=O)[O-].[Cl][Pt][Cl] [C3, trans-Dichloro-3-methyl-4-nitroisothiazole 3-Methyl-4-nitro-5-(methoxycarbonyl)isothiazole Platinum(II)]	0.814	slightly soluble	about 20 s	–	–	5.74 ± 0.65	–	very poorly soluble	0.333	12	inactive	–	–
COC(=O)c1snc(C)c1[N+](=O)[O-].COC(=O)c1snc(C)c1[N+](=O)[O-].[Cl][Pt][Cl] [C4, trans-Dichlorobis(3-methyl-4-nitro-5-(methoxycarbonyl)isothiazole)platinum(II)]	0.849	slightly soluble	~0.167 min	–	–	40.3 ± 19.9	–	very poorly soluble	–	24	inactive	–	–
Dichlorobis(3-methyl-4-nitroisothiazole)platinum(II) [C1]	0.442	–	about 16 min	–	–	31.4 ± 18.8	–	–	–	–	inactive	16	approximately three

Source: PMC12786457, “Studies on the Complexation of Platinum(II) by Some 4-Nitroisothiazoles and the Cytotoxic Activity of the Resulting Complexes” (Molecules, 2025)
